Measurements published in patent US20150366523A1, “NEURONAL IMAGING AND TREATMENT” (priority 2013, published 2015).

What was measured:
prostate stromal cells = settings: in vitro; cited from earlier work
[1] = test system: adrenergic synapses of the sympathetic nervous system; test: SPECT imaging of I-123-radiolabeled mIBG distribution in the heart, combined with x-ray CT; format: in vivo; settings: human patient, I-123-mIBG, D-SPECT plus CT
Experimental: A human patient was administered I-123-radiolabeled mIBG, a radioactive tracer for adrenergic synapses of the sympathetic nervous system. An image based on mIBG distribution was obtained by SPECT using a D-SPECT® Cardiac Imaging System (Spectrum Dynamics, Israel). The anatomy of the heart was determined by performing x-ray CT imaging and segmenting the obtained x-ray CT images. The x-ray CT data was then combined with the SPECT data so as to construct an image showing mIBG distribution in the heart.

Row | Structure (SMILES) | mitogenic effect on prostate stromal cells (prostate stromal cells) | mIBG activity in left atrium (site of maximal activity level) ([1]; left atrium, FIGS. 6A-6D) | mIBG activity in right ventricle (site of maximal activity level) ([1]; right ventricle, FIGS. 8A-8B)
1 | NC[C@H](O)c1ccc(O)c(O)c1 [Norepinephrine, norepinephrine] | direct mitogenic effect |  | 
2 | N=C(N)NCc1cccc(I)c1 [mIBG, m-iodobenzylguanidine] |  | maximal activity level in the left inferior pulmonary vein | maximal activity level in the interventricular septum
